Results as given in ChEMBL document CHEMBL4196095, “Design and synthesis of novel pyrrolo[2,3-a]carbazoles: 7-Chloro-2-oxo-3a-(2'-oxo-2',3'-dihydro-1'H-indol-3'-yl)-2,3,3a,4,5,10-hexahydro-pyrrolo[3,2-a]carbazole-1-carbonitrile as an efficient anticancer agent” (Eur J Med Chem, 2018).
Converted amounts (≈) assume the structure as drawn.

Key:
[1] = Antioxidant activity assessed as DPPH radical scavenging activity incubated under dark condition for 30 mins; assay type: functional
[2] = system: HCT-15; assay: Cytotoxicity against human HCT15 cells assessed as reduction in cell viability after 24 hrs by MTT assay; assay type: functional, cell-based; conditions: HCT-15, 24 h

SMILES	IC50 [1]	IC50 [2]
O=C1O[C@H]([C@@H](O)CO)C(O)=C1O [ASCORBIC ACID]	13.228 µg/mL (≈ 75.1 µM)	–
Cc1ccc2c3c([nH]c2c1)C1=C(C#N)C(=O)NC1(C1C(=O)c2cccc4cccc1c24)CC3 (configuration not stated)	28.251 µg/mL (≈ 65.8 µM)	31.6 µM
Cc1ccc2[nH]c3c(c2c1)CCC1(C2c4ccccc4-c4nc5ccccc5nc42)NC(=O)C(C#N)=C31 (configuration not stated)	42.31 µg/mL (≈ 88.2 µM)	35.9 µM
Cc1ccc2c3c([nH]c2c1)C1=C(C#N)C(=O)NC1(C1c2ccccc2-c2nc4cc(C)c(C)cc4nc21)CC3 (configuration not stated)	40.037 µg/mL (≈ 78.9 µM)	50.2 µM

Second part, led by results:

IC50 [1]	SMILES	IC50 [2]
28.918 µg/mL (≈ 73.3 µM)	Cc1cccc2c3c([nH]c12)C1=C(C#N)C(=O)NC1(C1C(=O)Nc2ccccc21)CC3 (configuration not stated)	31.6 µM
33.936 µg/mL (≈ 70.8 µM)	Cc1cccc2c3c([nH]c12)C1=C(C#N)C(=O)NC1(C1c2ccccc2-c2nc4ccccc4nc21)CC3 (configuration not stated)	23.7 µM
13.931 µg/mL (≈ 32.5 µM)	Cc1ccc2c3c([nH]c2c1)C1=C(C#N)C(=O)NC1(C1C(=O)Nc2ccc(Cl)cc21)CC3 (configuration not stated)	15.8 µM
> 100 µg/mL	Cc1cccc2c3c([nH]c12)C1=C(C#N)C(=O)NC1(C1C(=O)c2cccc4cccc1c24)CC3 (configuration not stated)	46.5 µM
41.934 µg/mL (≈ 106 µM)	Cc1ccc2[nH]c3c(c2c1)CCC1(C2C(=O)Nc4ccccc42)NC(=O)C(C#N)=C31 (configuration not stated)	47.4 µM
